How the values were obtained:
[1] = tested on: Ross x Hubbard HyY broiler chicks; assay: Example 1: efficacy of AQ applied to the litter used in broiler chicken houses (42 day performance); format: in vivo; details: AQ applied to the litter at the 1.0× dose; full dose and half dose of coccidiostat in the feed
From the text: A total of 3456 one-day-old straight run Ross x Hubbard HyY broiler chicks was used in the experiment. There were 6 treatments with 8 replicates per treatment and 72 birds per replicate. The individual pen was the experimental unit. The experimental treatments used follows:
1. Negative Control =No coccidiostat or growth promoting antibiotics and no litter treatment
2. Positive Control=BioCox® (full dose)+BMD®+3-Nitro and no litter treatment
3. BioCox® (full dose)+BMD®+3-Nitro+0.5× litter treatment*
4. BioCox® (full dose)+BMD®+3-Nitro+1.0× AQ litter treatment**
5. BioCox® (half dose)+BMD®+3-Nitro+0.5× AQ litter treatment
6. BioCox® (half dose)+BMD®+3-Nitro+1.0× AQ litter treatment
*0.5× Solution of AQ−⅛ Gallon/44,000sqft
**1.0× Solution of AQ−¼ Gallon/44,000sqfi

[2] = tested on: Ross x Hubbard HyY broiler chicks; assay: Example 2: efficacy of AQ applied to the litter used in broiler chicken houses, dose titration (42 day performance); format: in vivo
From the text: The term “weight adjusted feed efficiency” is based upon a feed efficiency corrected to a standard weight called the “weight adjusted feed efficiency” (WAFE). Feed efficiency can be adjusted to a standard weight of 2.00 kg. For every 31.78 grams difference in weight, the feed efficiency can be adjusted by 0.01. For example:
(§1) A total of 6912 one-day-old straight run Ross x Hubbard HyY broiler chicks was used in the experiment. There were 12 treatments with 8 replicates per treatment and 72 birds per replicate. The individual pen was the experimental unit. The experimental treatments used were as follows:
1. Negative Control—No coccidiostat or growth promoting antibiotics—No litter treatment
4. No litter treatment—BioCox (half dose)
3. 4× AQ litter treatment—No feed additives
4. 4× AQ litter treatment—BioCox (half dose)
5. 10.0× AQ litter treatment—No feed additives
6. 4.0× AQ litter treatment+BioCox (low dose)+BMD+3-Nitro
7. 4.0× AQ litter treatment BioCox (low dose)+BMD+3-Nitro
8. 10× AQ litter treatment−BioCox (half dose)
9. Positive Control BioCox (full dose)+BMD+3-Nitro
10. 4× AQ litter treatment−BioCox (full dose)+BMD+3-Nitro
11. 10× AQ litter treatment−BioCox (half dose)+BMD+3-Nitro
12. 10× AQ litter treatment−BioCox (full dose)+BMD+3-Nitro.
(§2) 4× Solution of AQ−1 Gallon/44,000sqft×4.2 ml per 48sqft (one pen)

[3] = tested on: coccidia; assay: Example 2: intestinal lesion scores (intestinal coccidia score); format: in vivo, broiler chicken; details: 14 day data; 10× or 4× AQ dose on litter combined with typically used poultry diets
Protocol: as §1, §2
This means that the lesion score difference was greater than 1 unit (scoring range of 0-4).

[4] = 10× AQ dose on litter combined with typically used poultry diets
[5] = 10× AQ dose on litter, diet contained no coccidiostat or antibiotic feed additive

O=C1c2ccccc2C(=O)c2ccccc21 [AQ, anthraquinone]
effect on feed efficiency (conclusion) [1]: improvement in feed efficiency | feed efficiency compared with the positive control (conclusion) [2, 4]: significantly improved (p<0.05) over the positive control | weight gain compared with the positive control (conclusion) [2, 4]: significantly improved (p<0.05) over the positive control | feed efficiency compared with the negative control (conclusion) [2, 5]: significant difference between this treatment and the negative control | feed efficiency compared with the positive control (conclusion) [2, 5]: no difference from the positive control | effect of addition of AQ to the litter on weight gain (conclusion) ([2]; dose titration study): tends to improve weight gain numerically | intestinal coccidia score compared with the positive and negative control (conclusion) [3]: improved significantly (p<0.05) over the positive and negative control
